The values below come from patent publication US20080038728A1, “Quadruple Transformed Cell Line Useful for the Identification of Transport Inhibitors” (priority 2004, published 2008).

Series [1] deals with T1, OATP1B3 (Homo sapiens, UniProt Q9NPD5).
T1 sequence (Q9NPD5 1-702): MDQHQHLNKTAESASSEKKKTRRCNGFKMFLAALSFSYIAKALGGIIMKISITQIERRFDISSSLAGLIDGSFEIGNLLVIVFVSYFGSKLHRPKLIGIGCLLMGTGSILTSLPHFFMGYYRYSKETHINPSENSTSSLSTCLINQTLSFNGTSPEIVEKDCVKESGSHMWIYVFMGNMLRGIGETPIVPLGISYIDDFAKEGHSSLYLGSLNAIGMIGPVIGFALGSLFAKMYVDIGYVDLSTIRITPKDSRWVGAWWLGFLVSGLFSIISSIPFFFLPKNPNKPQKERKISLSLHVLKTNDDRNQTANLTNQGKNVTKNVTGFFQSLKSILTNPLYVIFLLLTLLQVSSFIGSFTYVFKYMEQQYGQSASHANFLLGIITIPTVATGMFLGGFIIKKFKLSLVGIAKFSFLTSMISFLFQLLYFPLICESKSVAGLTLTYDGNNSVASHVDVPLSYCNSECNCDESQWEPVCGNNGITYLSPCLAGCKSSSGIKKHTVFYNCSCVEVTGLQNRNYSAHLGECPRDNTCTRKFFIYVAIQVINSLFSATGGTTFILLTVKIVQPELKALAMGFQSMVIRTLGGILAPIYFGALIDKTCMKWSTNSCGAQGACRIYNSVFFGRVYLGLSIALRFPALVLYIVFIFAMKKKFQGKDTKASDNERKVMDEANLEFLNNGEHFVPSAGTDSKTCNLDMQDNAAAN
The following applies: BSP uptake, background section; cited from earlier work.

For series [2], the target named is T1, OATP1B3. Nature of the series: Uptake (intracellular accumulation) kinetics in ABCC2/OATP1B3 double-transfected MDCKII cells. The class given is in vitro ADME. Set-up: expressed in transfected cells; host or cells: MDCKII (canine kidney), co-expressing ABCC2. As for the experimental part: (§1) (a) MDCKII cells were grown on ThinCerts (24-mm diameter, pore size 0.4 μm, pore density 1×10^8 per cm^2) and induced with butyrate as mentioned above. The cells were washed in prewarmed (37° C.) transport buffer (142 mM NaCl, 5 mM KCl, 1 mM KH2PO4, 1.2 mM MgSO4, 1.5 mM CaCl2, 5 mM glucose, and 12.5 mM HEPES, pH 7.3). The ^3H-labeled substrate was dissolved in transport buffer and added either to the apical or to the basolateral compartment at the concentration indicated. After incubation at 37° C., the radioactivity in the opposite compartment was measured by sampling aliquots from the apical or basolateral compartment. Cells were washed 2 times with ice-cold transport buffer containing 0.5% bovine serum albumin and 3 times in ice-cold transport buffer. Intracellular accumulation of radioactivity was calculated by lyzing the cells with 0.2% sodium dodecyl sulfate (SDS) and measuring the radioactivity in the lysate.

A further series concerns the target T2, OATP1B1 (Homo sapiens, UniProt Q9Y6L6).
T2 sequence (Q9Y6L6 1-691): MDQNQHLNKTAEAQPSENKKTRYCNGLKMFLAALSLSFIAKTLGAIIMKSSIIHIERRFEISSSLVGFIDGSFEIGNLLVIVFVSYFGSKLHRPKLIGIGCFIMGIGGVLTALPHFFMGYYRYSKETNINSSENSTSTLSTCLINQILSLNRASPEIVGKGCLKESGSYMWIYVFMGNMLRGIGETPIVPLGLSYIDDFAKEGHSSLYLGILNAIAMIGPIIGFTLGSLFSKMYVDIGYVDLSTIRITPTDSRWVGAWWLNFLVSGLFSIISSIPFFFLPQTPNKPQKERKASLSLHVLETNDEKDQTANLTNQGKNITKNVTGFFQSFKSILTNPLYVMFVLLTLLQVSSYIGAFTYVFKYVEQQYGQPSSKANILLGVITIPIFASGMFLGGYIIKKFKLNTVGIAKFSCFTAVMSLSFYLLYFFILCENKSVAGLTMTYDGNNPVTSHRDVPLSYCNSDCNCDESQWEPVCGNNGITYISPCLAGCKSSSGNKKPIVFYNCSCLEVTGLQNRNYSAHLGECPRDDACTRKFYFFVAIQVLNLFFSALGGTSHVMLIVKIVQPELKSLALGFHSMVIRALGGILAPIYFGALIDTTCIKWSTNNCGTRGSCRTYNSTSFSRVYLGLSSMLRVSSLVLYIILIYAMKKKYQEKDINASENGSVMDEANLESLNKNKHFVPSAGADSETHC
As to conditions: BSP uptake, background section; cited from earlier work.

The subject of series [3] is OATP1B1, OATP1B3, and OATP2B1. The experiment in a line: Uptake (intracellular accumulation) kinetics in ABCC2/OATP1B1/1B3/2B1 quadruple-transfected MDCKII cells. Format: in vitro ADME, human. The following applies: for Km: human. The protocol: as §1

Like-named read-outs stand apart in the source and are kept apart here.

Usually Km stands for the substrate concentration at which the rate is half of its maximum. For the compound `O=C1OC(c2ccc(O)c(S(=O)(=O)O)c2)(c2ccc(O)c(S(=O)(=O)O)c2)c2c(Br)c(Br)c(Br)c(Br)c21` [Bromosulfophthalein], the Km at OATP1B3 [1] was 3.4 µM; on OATP1B1, 0.14 µM; in series [3] (pH 7.3, cell line ABCC2-OATP1B1/1B3/2B1 (quadruple-transfectant), intracellular accumulation of 3H-labeled substrate, read-out: Km) it was 4.8 µM; in series [3] (pH 7.3, summary bound for the OATPs, referring to Table 1, read-out: Km values for the OATPs), under 5 µM. Moreover, the Vmax on OATP1B3 [2] (cell line ABCC2-OATP1B3, intracellular accumulation of 3H-labeled substrate) is reported as 82.7 ± 4.0 pmol · mg protein^−1 · min^−1; in series [3] (cell line ABCC2-OATP1B1/1B3/2B1 (quadruple-transfectant), intracellular accumulation of 3H-labeled substrate) it was 197.8 ± 3.0 pmol · mg protein^−1 · min^−1. The Km at 5 min on OATP1B3 [2] (human, pH 7.3) was 2.2 µM. Also, in series [3] (ABCC2/OATP1B1/1B3/2B1 quadruple-transfectants), the maximal velocity was 197.8 pmol×mg protein×min^−1.
